Source: the supplement of paper PMC10307832

What was measured:
Assay in all cases: relative viability (nuclei count vs DMSO), 5 days (fraction); higher = more cells survive
NVP-TAE684 + Decitabine = compound: COc1cc(N2CCC(N3CCN(C)CC3)CC2)ccc1Nc1ncc(Cl)c(Nc2ccccc2S(=O)(=O)C(C)C)n1 [NVP-TAE684] + Nc1ncn([C@H]2C[C@H](O)[C@@H](CO)O2)c(=O)n1 [Decitabine] (partner 2 µM)
Outline: (§1)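 Relative viability equals treated-well nuclei counts divided by vehicle-well nuclei counts. Counts came from 4× images of lung cancer cell lines grown in 1536-well plates for 5 days after pin-tool dosing on the day after seeding. Dosing used one drug alone or a fixed anchor-drug dose plus five library-drug doses (not always all listed) in √10 steps, and values are medians of duplicate plates.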

Vandetanib + Navitoclax = compound: COc1cc2/c(=N/c3ccc(Br)cc3F)nc[nH]c2cc1OCC1CCN(C)CC1 [Vandetanib] + CC1(C)CCC(c2ccc(Cl)cc2)=C(CN2CCN(c3ccc(C(=O)NS(=O)(=O)c4ccc(N[C@H](CCN5CCOCC5)CSc5ccccc5)c(S(=O)(=O)C(F)(F)F)c4)cc3)CC2)C1 [Navitoclax] (partner 0.5 µM)
Outline: as §1

[1] = compound: C1=CC=C2C(=C1)N=C(S2)C(C#N)C3=NC(=NC=C3)NCCC4=CN=CC=C4 + Cc1nc(Nc2ncc(C(=O)Nc3c(C)cccc3Cl)s2)cc(N2CCN(CCO)CC2)n1 [Dasatinib] (partner 0.075 µM)
Outline: as §1

[2] = compound: C1=CC=C2C(=C1)N=C(S2)C(C#N)C3=NC(=NC=C3)NCCC4=CN=CC=C4 + C[C@]1(O)C[C@@H](c2nc(-c3ccc4ccc(-c5ccccc5)nc4c3)c3c(N)nccn32)C1 [Linsitinib] (partner 1 µM)
Outline: as §1

Which results are given for LXF-289?
relative viability (NVP-TAE684 + Decitabine; first compound 0.2 µM): 0.433; relative viability (NVP-TAE684 + Decitabine; first compound 0.6325 µM): 0.384; relative viability (NVP-TAE684 + Decitabine; first compound 2 µM): 0.267; relative viability (Vandetanib + Navitoclax; first compound 0.02 µM): 0.94; relative viability (Vandetanib + Navitoclax; first compound 0.06325 µM): 0.921; relative viability (Vandetanib + Navitoclax; first compound 0.2 µM): 1; relative viability (Vandetanib + Navitoclax; first compound 0.6325 µM): 0.937; relative viability (Vandetanib + Navitoclax; first compound 2 µM): 0.934; relative viability ([1]; first compound 0.005 µM): 0.152; relative viability ([1]; first compound 0.01581 µM): 0.237; relative viability ([1]; first compound 0.05 µM): 0.209; relative viability ([1]; first compound 0.1581 µM): 0.24; relative viability ([1]; first compound 0.5 µM): 0.179; relative viability ([2]; first compound 0.005 µM): 0.853; relative viability ([2]; first compound 0.01581 µM): 1.01; relative viability ([2]; first compound 0.05 µM): 1.05; relative viability ([2]; first compound 0.1581 µM): 1.04; relative viability ([2]; first compound 0.5 µM): 0.92
